Here are results for 4 compounds from patent publication US20160229847A1, “NOVEL BICYCLIC PYRIDINONES AS GAMMA-SECRETASE MODULATORS” (PFIZER INC., priority 2013, published 2016).

This experiment concerns the target γ-secretase (Cricetulus griseus, UniProt G3HNF2). The experiment is described as follows: Cell-Based γ-Secretase Assay with ELISA Readout (production of amyloid beta protein Aβ(1-42)). To be noted: human WT-APP overexpressing CHO cells, ~24 h incubation, Aβ(1-42) ELISA. (An ELISA detects its analyte on a solid surface through an enzyme-linked reagent.)
[1] abbreviates: read-out: Aβ 42B IC50 (nM) (Geometric Mean of 2-5 Determinations), Table 5, geometric mean of 2-5 determinations.

As usually defined, the IC50 is the concentration that inhibits the measured activity by half.

Counter-ions that a name gives are not always drawn. Like-named read-outs stand apart in the source and are kept apart here.

Method: The ability of compounds to modulate production of amyloid beta protein Aβ(1-42) was determined using human WT-APP overexpressing CHO cells. Cells were plated at 22,000 cells/100 μL well in 96 well tissue culture treated, clear plates (Falcon) in DMEM/F12 based medium and incubated for 24 h at 37° C. […] Compounds were added in fresh medium to achieve 1% final DMSO. Appropriate vehicle or inhibitor controls were added into control wells individually to obtain minimum or maximum inhibition values, respectively, for the assay signal window before the plates were incubated for ˜24 h at 37° C. This procedure produces conditioned media in each well which is tested for Aβ(1-42) levels in the ELISA detection step described next. The remaining cell cultures in each well are also tested for cell toxicity as described below.
Coating of ELISA assay plates was initiated by addition of 50 μL/well of an in-house Aβ(1-42) specific antibody at (3 μg/mL) in 0.1 M NaHCO3 (pH 9.0) into black 384-well Maxisorp® plates (Nunc) and incubated overnight at 4° C. The capture antibody was then aspirated from the ELISA assay plates and plates were washed either 2×100 uL with a Matrical Squirt plate washer, or 3×90 uL with a Thermo Combi, using Wash Buffer (Dulbecco's PBS, 0.05% Tween 20). 90 μL/well of Blocking Buffer (Dulbecco's PBS, 1.0% BSA (Sigma A7030) was then added to plates. Ambient temperature incubation was allowed to proceed for a minimum of 2 h. Blocking buffer was then removed and 20 μL/well Assay Buffer (Dulbecco's PBS, 1.0% BSA (Sigma A7030), 0.05% Tween 20) was then added. At this point, 35 uL (40 uL prior to August, 2012) (in duplicate) of experimental conditioned media (described above) were transferred into wells of the blocked ELISA plates containing the capture antibody, followed by overnight incubation at 4° C. Cell toxicity was also measured in the corresponding remaining cells after removal of the conditioned media for the Aβ(1-42) assay by a colorimetric cell proliferation assay (CellTiter 96® AQueous One Solution Cell Proliferation Assay, Promega) according to the manufacturer's instructions.
After overnight incubation of the ELISA assay plates at 4° C., unbound Aβ peptides were removed via either 2×100 uL washes with a Matrical Squirt plate washer, or 3×90 uL washes with a Thermo Combi, using Wash Buffer. Europium (Eu) labeled (custom labeled, PerkinElmer) Aβ(1-16) 6e10 Monoclonal Antibody (Covance #SIG-39320) was added, (50 μL/well Eu-6e10 @ 1:10,000, 20 uM EDTA) in Assay Buffer. […] Following 30 to 60 min ambient temperature incubation, the plates were read on an EnVision plate reader (PerkinElmer) using standard DELFIA TRF settings. […]

As to `Cc1cn(-c2ccc3n(c2=O)CCN(Cc2nc(C4(c5ccc(Cl)cc5)CCC4)no2)C3=O)cn1` [Example 18, 2-({3-[1-(4-chlorophenyl)cyclobutyl]-1,2,4-oxadiazol-5-yl}methyl)-7-(4-methyl-1H-imidazol-1-yl)-3,4-dihydro-2H-pyrido[1,2-a]pyrazine-1,6-dione, trifluoroacetate salt], the IC50 under setting [1] is 169 nM.

Turning to “2-[(4′-fluorobiphenyl-3-yl)methyl]- 7-(4-methyl-1H-imidazol-1-yl)- 3,4-dihydro-2H-pyrido[1,2- a]pyrazine-1,6-dione, formate salt [Example 12]”, the IC50 (Table 5, footnote 1: single determination, read-out: Aβ 42B IC50 (nM), IC50 value is from a single determination) amounted to 83.4 nM. On to “2-[(7-chloro-6,8-dimethoxyquinolin-2- yl)methyl]-7-(4-methyl-1H-imidazol- 1-yl)-3,4-dihydro-2H-pyrido[1,2- a]pyrazine-1,6-dione [Example 87]”, for which the IC50 under setting [1] is 150 nM. Still for that read-out and setting: the figure for `Cc1cn(-c2ccc3n(c2=O)CCN(CC2(c4ccc(Cl)cc4)CC2)C3=O)cn1` [Example 17, 2-{[1-(4-chlorophenyl)cyclopropyl]methyl}-7-(4-methyl-1H-imidazol-1-yl)-3,4-dihydro-2H-pyrido[1,2-a]pyrazine-1,6-dione, trifluoroacetate salt] is 410 nM.
